Measurements as given in patent EP0545911B1, “Lanthionine-containing bacteriocin compositions for use as bactericides” (APPLIED MICROBIOLOGY, INC., priority 1988, dated 1996).

Assays:
Assay type in all cases: cell-based
Streptococcus agalactiae = assay: Bactericidal activity (percent bacterial survival, CFU count) in milk at 37°C; conditions: for % survival at 2hr: Monolaurin 0 %
Description: (§1) All tests in the following examples were performed at 37°C. The efficacy of the enhanced broad range bactericides was determined by assaying bactericidal activity as measured by the percent bacterial survival after treatment with the bactericide. Generally, after incubation of a 10^7 cell per ml suspension of target species with the novel bactericide for specified lengths of time, bacteria were collected by centrifugation for 2 minutes. The bacterial pellet was washed free of the bactericide with a rescue buffer, termed herein Phage buffer (50mM Tris-HCl buffer pH 7.8, 1mM MgSO4, 4mM CaCl2, 0.1 M NaCl, and 0.1% gelatin), resuspended and serially diluted into Phage buffer, and […] of the suspended bacteria were spread on nutrient agar plates. Surviving bacteria were determined by scoring colony forming units (CFU) after incubation for 24-48 hours at 37°C. An effective bactericide according to this invention is one which allows less than 0.1% of the initial viable count of the bacteria to survive.
Thus, when the application of nisin is limited by its available activity, a bactericide comprising nisin with a surfactant can be expected to be more useful.

Listeria monocytogenes [1] = assay: as above
Description: as §1

Listeria monocytogenes [2] = conditions: monooleate by itself; milk
Description: as §1

CCCCCCCCCCCC(=O)OCC(O)CO (stereo not drawn) [Monolaurin, monolaurin]
viability at 0.01 % (Streptococcus agalactiae; Streptococcus agalactiae, 2 h, Nisin 0 µg/ml, Monolaurin 0.01 %, 37°C, initial viable counts 6.0 x 10^7 cfu/ml): 100%
viability at 0.1 % (Streptococcus agalactiae; Streptococcus agalactiae, 2 h, Nisin 0 µg/ml, Monolaurin 0.1 %, 37°C, initial viable counts 6.0 x 10^7 cfu/ml): 4.5%
bactericidal activity towards Streptococcus agalactiae (in words) (Streptococcus agalactiae; monolaurin alone at concentrations up to 0.1%): little significant bactericidal activity

Nisin (ITSISLCTPGCKTGALMGCNMKTATCHCSIHVSK; not fully specified; Lantibiotic nisin-A; UniProt P13068 24-57, looked up) [polypeptide with antimicrobial properties produced by strains of Streptococcus lactis; lanthionine-containing peptide bacteriocin, known food preservative]
% survival at 2hr (Listeria monocytogenes [1]; Nisin 100 µg/ml, Monooleate 0 %, milk, 37°C, initial viable count 5.0 x 10^7 cfu/ml): 0.56%
available nisin activity towards L. monocytogenes (in words) (Listeria monocytogenes [1]; nisin alone, complex medium like milk): restricted
% survival at 2hr (Streptococcus agalactiae; Nisin 0.02 µg/ml, 37°C, initial viable counts 6.0 x 10^7 cfu/ml): 100%
% survival at 2hr (Streptococcus agalactiae; Nisin 0.2 µg/ml, 37°C, initial viable counts 6.0 x 10^7 cfu/ml): 2.2%
bactericidal activity in milk (in words) (Streptococcus agalactiae; nisin alone at concentrations up to 0.2 µg.ml): does not exhibit significant bactericidal activity

glyceride monooleate
bactericidal activity towards L. monocytogenes (in words) (Listeria monocytogenes [2]): no bactericidal activity
